Measured values: patent US8389557B2, “Triazole derivatives useful as Axl inhibitors” (Rigel Pharmaceuticals, Inc., priority 2005, dated 2013)

Key:
Axl = target: T1, Axl (Homo sapiens, UniProt P30530); test: Phospho-Akt in-cell Western assay (inhibition of Axl activity); type: cell-based
T1 construct: endogenous in cells; host or cells: HeLa cells
T1 sequence (P30530 26-894): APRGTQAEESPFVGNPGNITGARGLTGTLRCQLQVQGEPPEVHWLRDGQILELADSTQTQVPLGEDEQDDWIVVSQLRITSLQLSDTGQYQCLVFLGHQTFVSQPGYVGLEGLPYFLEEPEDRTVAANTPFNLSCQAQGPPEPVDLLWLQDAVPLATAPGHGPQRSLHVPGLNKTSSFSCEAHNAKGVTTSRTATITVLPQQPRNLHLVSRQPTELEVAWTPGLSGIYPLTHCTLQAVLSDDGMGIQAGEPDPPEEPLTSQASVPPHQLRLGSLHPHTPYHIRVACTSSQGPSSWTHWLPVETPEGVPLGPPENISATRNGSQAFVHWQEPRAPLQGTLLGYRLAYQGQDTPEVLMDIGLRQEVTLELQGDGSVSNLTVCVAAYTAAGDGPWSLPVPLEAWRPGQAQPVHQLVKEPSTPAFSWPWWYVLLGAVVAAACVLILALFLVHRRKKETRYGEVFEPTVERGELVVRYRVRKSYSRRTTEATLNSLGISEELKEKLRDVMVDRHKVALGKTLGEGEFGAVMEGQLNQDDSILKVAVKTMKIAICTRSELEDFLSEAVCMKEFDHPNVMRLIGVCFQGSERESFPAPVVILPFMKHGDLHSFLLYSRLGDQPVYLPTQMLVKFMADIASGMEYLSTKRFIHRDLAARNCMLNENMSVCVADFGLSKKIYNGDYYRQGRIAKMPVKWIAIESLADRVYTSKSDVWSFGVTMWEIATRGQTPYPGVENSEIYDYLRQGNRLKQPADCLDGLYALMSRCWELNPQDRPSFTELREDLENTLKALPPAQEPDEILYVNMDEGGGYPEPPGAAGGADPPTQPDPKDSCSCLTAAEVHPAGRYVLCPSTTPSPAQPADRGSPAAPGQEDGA
Summary of the method: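 HeLa cells on poly-L-lysine, starved 24 h in 0.5% FCS DMEM with Axl/Fc 500 ng/mL, pre-treated with compound 1 h at 37° C. Axl stimulated 5 min by anti-Axl/anti-mouse antibody cross-linking. Fixed cells probed with anti-phospho-Akt and HRP secondary, chemiluminescence read.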

[1] = inhibition of Axl activity, Table 1
[2] = Table 5, Hela cells, Axl antibody cross-linking stimulation, phospho-Akt chemiluminescence

Row | IC50 (Axl; [1]) [µM] | melting point [°C] | IC50 (Axl; [2]) [µM] | IC50 (Axl; Table 4, Hela cells, Axl antibody cross-linking stimulation, phospho-Akt chemiluminescence) [µM] | IC50 (Axl; Table 3, Hela cells, Axl antibody cross-linking stimulation, phospho-Akt chemiluminescence) [µM] | Structure (SMILES)
1 | 1 to 10 | 229 to 234 |  |  |  | CC(C)Oc1ccc(C(=O)n2nc(Nc3ccc(O)cc3)nc2N)cc1 [(Ia-11), 5-amino-3-[4-(hydroxy)phenylamino]-1-(4-(iso-propoxy)phenyl)carbonyl-1H-1,2,4-triazole]
2 | 1 to 10 | 182.9 to 186.1 |  |  |  | CC(C)Oc1ccc(C(=O)n2nc(Nc3ccc(OCC#N)cc3)nc2N)cc1 [(Ia-12), 5-amino-3-[4-(cyanomethoxy)phenylamino]-1-(4-(iso-propoxy)phenyl)carbonyl-1H-1,2,4-triazole]
3 | 1 to 10 | 204.2 to 211.9 |  |  |  | CC(C)Oc1ccc(C(=O)n2nc(Nc3cccc(O)c3)nc2N)cc1 [(Ia-13), 5-amino-3-[3-(hydroxy)phenylamino]-1-(4-(iso-propoxy)phenyl)carbonyl-1H-1,2,4-triazole]
4 | 1 to 10 | 211.3 to 214.8 |  |  |  | CC(C)Oc1cccc(C(=O)n2nc(Nc3cccc(O)c3)nc2N)c1 [(Ia-16), 5-amino-3-[3-(hydroxy)phenylamino]-1-(3-(iso-propoxy)phenyl)carbonyl-1H-1,2,4-triazole]
5 | > 20 | 131.1 to 132.4 |  |  |  | CC(C)Oc1cccc(C(=O)n2nc(Nc3cccc(OCc4ccccc4)c3)nc2N)c1 [(Ia-17), 5-amino-3-[3-(benzyloxy)phenylamino]-1-(3-(iso-propoxy)phenyl)carbonyl-1H-1,2,4-triazole]
6 | 1 to 10 | 145 to 147 |  |  |  | Cc1cccc(C(=O)n2nc(Nc3cccc(OCC(=O)NCCN4CCOCC4)c3)nc2N)c1 [(Ia-18), 5-amino-1-(3-methylphenyl)carbonyl-3-[3-[2-(4-morpholinyl)ethylaminocarbonylmethoxy]phenyl]amino-1H-1,2,4-triazole]
7 | > 20 | 206 to 208 |  |  |  | Cc1cccc(C(=O)n2nc(Nc3cccc(OCC(=O)N4CCN(C(=O)OC(C)(C)C)CC4)c3)nc2N)c1 [(Ia-19)]
8 | 1 to 10 | 169 to 171 |  |  |  | Cc1cccc(C(=O)n2nc(Nc3cccc(OCC(=O)N4CCNCC4)c3)nc2N)c1 [(Ia-20), 5-amino-1-(3-methylphenyl)carbonyl-3-[3-(piperazin-4-ylcarbonylmethoxy)phenyl]amino-1H-1,2,4-triazole]
9 | 1 to 10 | 152 to 153.7 |  |  |  | CC(C)Oc1ccc(C(=O)n2nc(Nc3cccc(OCCN4CCOCC4)c3)nc2N)cc1 [(Ia-22)]
10 | 1 to 10 | 144.4 to 145.4 |  |  |  | CC(C)Oc1ccc(C(=O)n2nc(Nc3cccc(OCCC4OCCO4)c3)nc2N)cc1 [(Ia-24), 5-amino-3-[3-[2-(1,3-dioxolan-2-yl)ethoxy]phenylamino]-1-(4-(iso-propoxy)phenyl)carbonyl-1H-1,2,4-triazole]
11 | > 20 | 188.7 to 189.9 |  |  |  | CC(C)Oc1ccc(C(=O)n2nc(Nc3cccc(OCc4ccccc4)c3)nc2N)cc1 [(Ia-25), 5-amino-3-[3-(benzyloxy)phenylamino]-1-(4-(iso-propoxy)phenyl)carbonyl-1H-1,2,4-triazole]
12 | 1 to 10 | 60 to 63 |  |  |  | Cc1cccc(C(=O)n2nc(Nc3cccc(OCCN4CCOCC4)c3)nc2N)c1 [(Ia-27)]
13 |  | 128 to 131 | 1 to 10 |  |  | C=CCN(C)Cc1cc2cc(Nc3nc(N)n(C(=O)c4cccc(C)c4)n3)ccc2o1 [(Ia-28), 5-amino-3-(2-((allyl(methyl)amino)methyl)benzofuran-5-yl)amino-1-(3-methylphenyl)carbonyl-1H-1,2,4-triazole]
14 |  | 128 to 131 | < 1 |  |  | CNCc1cc2cc(Nc3nc(N)n(C(=O)c4cccc(C)c4)n3)ccc2o1 [(Ia-29), 5-amino-3-(2-((methylamino)methyl)benzofuran-5-yl)amino-1-(3-methylphenyl)carbonyl-1H-1,2,4-triazole]
15 |  | 190 to 193 |  | > 20 |  | Nc1nc(Nc2ccccc2)n(C(=O)/C=C/c2ccco2)n1 [compound 140, 3-amino-5-phenylamino-1-(trans-2-(furan-2-yl)ethenyl)carbonyl-1H-1,2,4-triazole]
16 |  | 212 to 216 |  |  | 1 to 10 | Nc1nc(Nc2ccccc2)nn1C(=O)/C=C/c1ccco1 [compound 141, 5-amino-3-phenylamino-1-(trans-2-(furan-2-yl)ethenyl)carbonyl-1H-1,2,4-triazole]
